Test results published in article PMC6394493 (Cancer Chemotherapy and Pharmacology, 2018).
Like-named read-outs stand apart in the source and are kept apart here.

What was measured:
[1] = all formulations and dose levels tested (≥ 100 mg), qd; Western oncology patients; cited from earlier work
S6 phosphorylation (pS6) = experiment: pS6 in normal skin samples (PD biomarker); format: in vivo, Japanese patients; details: 400 mg bid; 3/6 patients; baseline vs end of Cycle 1
[2] = Plasma pharmacokinetics (LC–MS/MS, non-compartmental analysis); format: in vivo, Japanese patients; details: for AUC(0-inf) / AUC(0-t) / Cmax / Tmax: human, plasma, oral; for AUC(0-inf): read-out: AUCinf, Median; for Cmax: read-out: Cmax, Median; for Tmax: read-out: Tmax, Median
Experimental: The PK parameters were determined by non-compartmental analysis using Phoenix WinNonlin 6.2® (Pharsight, Mountain View, CA).

[3] = 400 mg, Cycle 1 Day 1, 400 mg bid, n = 7
[4] = 400 mg, Cycle 1 Day 1, 400 mg qd, n = 3
[5] = 400 mg, Cycle 1 Day 8, 400 mg bid, n = 6
[6] = 400 mg, Cycle 1 Day 8, 400 mg qd, n = 3
[7] = 400 mg, Cycle 1 Day 28, 400 mg bid, n = 4
[8] = 400 mg, Cycle 1 Day 28, 400 mg qd, n = 3
[9] = 800 mg, Cycle 1 Day 1, 800 mg qd, n = 3
[10] = 800 mg, Cycle 1 Day 8, 800 mg qd, n = 3
[11] = 800 mg, Cycle 1 Day 28, 800 mg qd, n = 3

## Cn1c(=O)n(-c2ccc(C(C)(C)C#N)cc2)c2c3cc(-c4cnc5ccccc5c4)ccc3ncc21 [BEZ235]
[1]
  bioavailability: low bioavailability
S6 phosphorylation (pS6)
  samples with reduction of pS6 in normal skin: 50%
[2]; 400 to 1400 mg qd
  dose dependence of Cmax and AUC: appeared to increase in a dose-dependent manner
[2]; at most of the visits and doses
  inter-individual variability, coefficient of variation on the AUC and Cmax: greater than 100%
[2]; 400 mg, Cycle 1 Day 1, 400 mg bid, n = 2
  AUC(0-inf): 2 µg·h/mL
[2]; 400 mg, Cycle 1 Day 1, 400 mg bid, n = 4, read-out: AUC0 − 24, Median
  AUC(0-t): 1.76 µg·h/mL
[2]; 400 mg, Cycle 1 Day 1, 400 mg bid, n = 7, read-out: AUClast, Median
  AUC(0-t): 2.28 µg·h/mL
[2]; [3]
  Cmax: 0.301 µg/mL
  Tmax: 6 h
[2]; 400 mg, Cycle 1 Day 1, 400 mg qd, n = 2
  AUC(0-inf): 0.978 µg·h/mL
[2]; 400 mg, Cycle 1 Day 1, 400 mg qd, n = 3, read-out: AUC0 − 24, Median
  AUC(0-t): 1.04 µg·h/mL
[2]; 400 mg, Cycle 1 Day 1, 400 mg qd, n = 3, read-out: AUClast, Median
  AUC(0-t): 1.04 µg·h/mL
[2]; [4]
  Cmax: 0.135 µg/mL
  Tmax: 4 h
[2]; 400 mg, Cycle 1 Day 8, 400 mg bid, n = 1
  AUC(0-inf): 2.79 µg·h/mL
[2]; 400 mg, Cycle 1 Day 8, 400 mg bid, n = 5, read-out: AUC0 − 24, Median
  AUC(0-t): 10.7 µg·h/mL
[2]; 400 mg, Cycle 1 Day 8, 400 mg bid, n = 6, read-out: AUClast, Median
  AUC(0-t): 9.7 µg·h/mL
[2]; [5]
  Cmax: 1.05 µg/mL
  Tmax: 4 h
[2]; 400 mg, Cycle 1 Day 8, 400 mg qd, n = 2
  AUC(0-inf): 14.3 µg·h/mL
[2]; 400 mg, Cycle 1 Day 8, 400 mg qd, n = 3, read-out: AUC0 − 24, Median
  AUC(0-t): 7.35 µg·h/mL
[2]; 400 mg, Cycle 1 Day 8, 400 mg qd, n = 3, read-out: AUClast, Median
  AUC(0-t): 7.35 µg·h/mL
[2]; [6]
  Cmax: 0.754 µg/mL
  Tmax: 4 h
[2]; 400 mg, Cycle 1 Day 28, 400 mg bid, n = 1
  AUC(0-inf): 2.66 µg·h/mL
[2]; 400 mg, Cycle 1 Day 28, 400 mg bid, n = 3, read-out: AUC0 − 24, Median
  AUC(0-t): 29.4 µg·h/mL
[2]; 400 mg, Cycle 1 Day 28, 400 mg bid, n = 4, read-out: AUClast, Median
  AUC(0-t): 34.1 µg·h/mL
[2]; [7]
  Cmax: 3.65 µg/mL
  Tmax: 4 h
[2]; 400 mg, Cycle 1 Day 28, 400 mg qd, n = 3, read-out: AUC0 − 24, Median
  AUC(0-t): 8.92 µg·h/mL
[2]; [8]
  AUC(0-inf): 10.2 µg·h/mL
  Cmax: 0.795 µg/mL
  Tmax: 4 h
[2]; 400 mg, Cycle 1 Day 28, 400 mg qd, n = 3, read-out: AUClast, Median
  AUC(0-t): 8.92 µg·h/mL
[2]; 800 mg, Cycle 1 Day 1, 800 mg qd, n = 1
  AUC(0-inf): 1.49 µg·h/mL
[2]; 800 mg, Cycle 1 Day 1, 800 mg qd, n = 3, read-out: AUC0 − 24, Median
  AUC(0-t): 2.56 µg·h/mL
[2]; 800 mg, Cycle 1 Day 1, 800 mg qd, n = 3, read-out: AUClast, Median
  AUC(0-t): 2.56 µg·h/mL
[2]; [9]
  Cmax: 0.154 µg/mL
  Tmax: 8 h
[2]; 800 mg, Cycle 1 Day 8, 800 mg qd, n = 1
  AUC(0-inf): 19.9 µg·h/mL
[2]; 800 mg, Cycle 1 Day 8, 800 mg qd, n = 3, read-out: AUC0 − 24, Median
  AUC(0-t): 17.3 µg·h/mL
[2]; 800 mg, Cycle 1 Day 8, 800 mg qd, n = 3, read-out: AUClast, Median
  AUC(0-t): 17.3 µg·h/mL
[2]; [10]
  Cmax: 1.17 µg/mL
  Tmax: 6 h
[2]; 800 mg, Cycle 1 Day 28, 800 mg qd, n = 2
  AUC(0-inf): 13.5 µg·h/mL
[2]; 800 mg, Cycle 1 Day 28, 800 mg qd, n = 3, read-out: AUC0 − 24, Median
  AUC(0-t): 25 µg·h/mL
[2]; 800 mg, Cycle 1 Day 28, 800 mg qd, n = 3, read-out: AUClast, Median
  AUC(0-t): 24.9 µg·h/mL
[2]; [11]
  Cmax: 1.98 µg/mL
  Tmax: 2 h
[2]; 1000 mg, Cycle 1 Day 1, 1000 mg qd, n = 3
  AUC(0-inf): 1.41 µg·h/mL
[2]; 1000 mg, Cycle 1 Day 1, 1000 mg qd, n = 4, read-out: AUC0 − 24, Median
  AUC(0-t): 4.33 µg·h/mL
[2]; 1000 mg, Cycle 1 Day 1, 1000 mg qd, n = 6, read-out: AUClast, Median
  AUC(0-t): 4.49 µg·h/mL
